Experimental data: patent US9365541B2, “Compounds for use in the treatment of parasitic diseases” (IRBM—SCIENCE PARK S.P.A., priority 2012, dated 2016)

How the values were obtained:
human HDAC1 = target: T1, human HDAC1 (Homo sapiens, UniProt Q13547); assay: Homo sapiens HDAC1 inhibition assay (Fluor-de-Lys, enzymatic); assay type: biochemical; conditions: human HDAC enzymatic assay; read-out: hHDAC IC50
T1 construct: made in house; host or cells: HeLa (ATCC CCL-2), mammalian cells
In short: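 Product developed with trypsin developer containing 2 μM TSA to stop the reaction; fluorescence measures deacetylase activity, inversely related to inhibition.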

[1] = test system: Plasmodium falciparum 3D7; assay: P. falciparum growth inhibition assay (Pf-LDH); assay type: cell-based; conditions: Plasmodium falciparum, Erythrocyte; P. falciparum 3D7 infected erythrocytes, 72 h incubation, PfLDH readout
In short: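 P. falciparum 3D7 (chloroquine-sensitive) at 0.25% parasitemia and 2% hematocrit was incubated with compound for 72 h at 37° C under 4% CO2/3% O2/93% N2. After freeze-thaw, PfLDH activity was read at 650 nm with lactate/APAD/NBT/diaphorase mix (pH 8.0).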

T1 sequence (Q13547 whole entry): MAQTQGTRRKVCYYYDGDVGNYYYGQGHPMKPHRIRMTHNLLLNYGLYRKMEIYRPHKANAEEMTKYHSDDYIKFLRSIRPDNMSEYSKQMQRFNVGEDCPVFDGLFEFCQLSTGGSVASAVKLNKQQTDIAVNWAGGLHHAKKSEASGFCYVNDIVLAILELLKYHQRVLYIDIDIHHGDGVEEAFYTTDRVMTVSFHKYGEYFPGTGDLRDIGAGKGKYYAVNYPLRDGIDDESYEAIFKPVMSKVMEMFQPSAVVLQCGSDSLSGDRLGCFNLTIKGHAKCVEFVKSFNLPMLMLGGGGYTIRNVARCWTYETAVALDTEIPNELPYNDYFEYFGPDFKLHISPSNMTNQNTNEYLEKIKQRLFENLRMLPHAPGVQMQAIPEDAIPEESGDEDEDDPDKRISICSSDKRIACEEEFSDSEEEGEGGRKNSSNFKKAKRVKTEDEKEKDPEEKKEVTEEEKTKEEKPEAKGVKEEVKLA

COc1ccc2[nH]c(C)c(CC(=O)N[C@@H](CCCCCC(N)=O)c3nnc(-c4ccc5ccccc5c4)[nH]3)c2c1 [Entry 70, (S)-7-(2-(5-methoxy-2-methyl-1H-indol-3-yl)acetamido)-7-(5-(naphthalen-2-yl)-4H-1,2,4-triazol-3-yl)heptanamide]
IC50 (human HDAC1): < 1 µM | EC50 [1]: < 1 µM

CNC(=O)CCCCC[C@H](NC(=O)CC1=CSC2=NCCCN12)c1ncc(-c2ccc3ccccc3c2)[nH]1 [Entry 202, (S)-7-(2-(6,7-dihydro-5H-thiazolo[3,2-a]pyrimidin-3-yl)acetamido)-N-methyl-7-(5-(naphthalen-2-yl)-1H-imidazol-2-yl)heptanamide]
IC50 (human HDAC1): 1 to 5 µM | EC50 [1]: < 1 µM

CNC(=O)CCCCC[C@H](NC(=O)c1cncs1)c1ncc(-c2ccc3cccnc3c2)[nH]1 [Entry 10]
IC50 (human HDAC1): > 5 µM | EC50 [1]: 1 to 5 µM

CNC(=O)CCCCC[C@H](NC(=O)c1cnc(CN2CCCC2)s1)c1ncc(-c2ccc3ccncc3c2)[nH]1 [Entry 65, (S)-N-(1-(5-(isoquinolin-7-yl)-1H-imidazol-2-yl)-7-(methylamino)-7-oxoheptyl)-2-(pyrrolidin-1-ylmethyl)thiazole-5-carboxamide]
IC50 (human HDAC1): < 1 µM | EC50 [1]: < 1 µM

CNC(=O)CCCCC[C@H](NC(=O)CC1=CSC2=NCCCN12)c1ncc(-c2ccc3ccncc3c2)[nH]1 [Entry 155, (S)-7-(2-(6,7-dihydro-5H-thiazolo[3,2-a]pyrimidin-3-yl)acetamido)-7-(5-(isoquinolin-7-yl)-1H-imidazol-2-yl)-N-methyl-heptanamide]
IC50 (human HDAC1): 1 to 5 µM | EC50 [1]: 1 to 5 µM

CNC(=O)CCCCC[C@H](NC(=O)OCc1ccccc1)c1ncc(-c2ccc(-c3cc[nH]n3)cc2)[nH]1 [Entry 37, (S)-benzyl(1-(5-(4-(1H-pyrazol-3-yl)phenyl)-1H-imidazol-2-yl)-7-(methylamino)-7-oxoheptyl)carbamate]
IC50 (human HDAC1): < 1 µM | EC50 [1]: 1 to 5 µM

CNC(=O)CCCCC[C@H](NC(=O)C1(C)CCOCC1)c1ncc(-c2ccc3ccccc3c2)[nH]1 [Entry 40]
IC50 (human HDAC1): 1 to 5 µM | EC50 [1]: 1 to 5 µM

CNC(=O)CCCCC[C@H](NC(=O)c1cncs1)c1ncc(-c2ccc3[nH]ccc3c2)[nH]1 [Entry 24, (S)-N-(1-(5-(1H-indol-5-yl)-1H-imidazol-2-yl)-7-(methylamino)-7-oxoheptyl)thiazole-5-carboxamide]
IC50 (human HDAC1): 1 to 5 µM | EC50 [1]: < 1 µM

CNC(=O)CCCCC[C@H](NC(=O)c1cncs1)c1ncc(-c2ccc3ccccc3n2)[nH]1 [Entry 128, (S)-N-(7-(methylamino)-7-oxo-1-(5-(quinolin-2-yl)-1H-imidazol-2-yl)heptyl)thiazole-5-carboxamide]
IC50 (human HDAC1): > 5 µM | EC50 [1]: 1 to 5 µM

CNC(=O)CCCCC[C@H](NC(=O)c1cnsc1)c1ncc(-c2ccc(-c3ccn(C)n3)cc2)[nH]1 [Entry 210]
IC50 (human HDAC1): 1 to 5 µM | EC50 [1]: < 1 µM

CNC(=O)CCCCC[C@H](NC(=O)c1cncs1)c1ncc(-c2ccc(-c3cccs3)cc2)[nH]1 [Entry 109, (S)-N-(7-(methylamino)-7-oxo-1-(5-(4-(thiophen-2-yl)phenyl)-1H-imidazol-2-yl)heptyl)thiazole-5-carboxamide]
IC50 (human HDAC1): 1 to 5 µM | EC50 [1]: 1 to 5 µM

CNC(=O)CCCCC[C@H](NC(=O)Cc1nc(-c2ccccc2)cs1)c1ncc(-c2ccc3ccccc3c2)[nH]1 [Entry 63]
IC50 (human HDAC1): 1 to 5 µM | EC50 [1]: 1 to 5 µM

CNC(=O)CCCCC[C@H](NC(=O)Cc1csc2nccn12)c1ncc(-c2ccc(-c3ccn(C)n3)cc2)[nH]1 [Entry 146, (S)-7-(2-(imidazo[2,1-b]thiazol-3-yl)acetamido)-N-methyl-7-(5-(4-(1-methyl-1H-pyrazol-3-yl)phenyl)-1H-imidazol-2-yl)heptanamide]
IC50 (human HDAC1): 1 to 5 µM | EC50 [1]: 1 to 5 µM

CNC(=O)CCCCC[C@H](NC(=O)CCc1c(C)nc2ncnn2c1C)c1ncc(-c2ccc(-n3cccn3)cc2)[nH]1 [Entry 38, (S)-7-(5-(4-(1H-pyrazol-1-yl)phenyl)-1H-imidazol-2-yl)-7-(3-(5,7-dimethyl-[1,2,4]triazolo[1,5-a]pyrimidin-6-yl)propanamido)-N-methylheptanamide]
IC50 (human HDAC1): 1 to 5 µM | EC50 [1]: 1 to 5 µM

CNC(=O)CCCCC[C@H](NC(=O)C1CN(C)C1)c1ncc(-c2cc3ccccc3nc2OC)o1 [Entry 71, (S)-N-(1-(5-(2-methoxyquinolin-3-yl)oxazol-2-yl)-7-(methylamino)-7-oxoheptyl)-1-methylazetidine-3-carboxamide]
IC50 (human HDAC1): < 1 µM | EC50 [1]: < 1 µM

CNC(=O)CCCCC[C@H](NC(=O)c1ccc(N2CC(=O)NC2=O)cc1)c1ncc(-c2ccc3ccccc3c2)[nH]1 [Entry 41, (S)-4-(2,4-dioxoimidazolidin-1-yl)-N-(7-(methylamino)-1-(5-(naphthalen-2-yl)-1H-imidazol-2-yl)-7-oxo-heptyl)benzamide]
IC50 (human HDAC1): 1 to 5 µM | EC50 [1]: < 1 µM

CNC(=O)CCCCC[C@H](NC(=O)c1cnsc1)c1ncc(-c2ccc3[nH]ncc3c2)[nH]1 [Entry 34, (S)-N-(1-(5-(1H-indazol-5-yl)-1H-imidazol-2-yl)-7-(methylamino)-7-oxoheptyl)isothiazole-4-carboxamide]
IC50 (human HDAC1): 1 to 5 µM | EC50 [1]: 1 to 5 µM

CNC(=O)CCCCC[C@H](NC(=O)c1cscn1)c1ncc(-c2ccc(-c3ccn(C)n3)cc2)[nH]1 [Entry 209, (S)-N-(1-(5-(4-(1-methyl-1H-pyrazol-3-yl)phenyl)-1H-imidazol-2-yl)-7-(methylamino)-7-oxoheptyl)thiazole-4-carboxamide]
IC50 (human HDAC1): > 5 µM | EC50 [1]: > 5 µM

CNC(=O)CCCCC[C@H](NC(=O)CCN1CCCCC1)c1ncc(-c2cc3ccccc3nc2OC)[nH]1 [Entry 99]
IC50 (human HDAC1): < 1 µM | EC50 [1]: 1 to 5 µM

CNC(=O)CCCCC[C@H](NC(=O)c1ccn(C)n1)c1ncc(-c2cc3ccccc3nc2OC)[nH]1 [Entry 135, (S)-N-(1-(5-(2-methoxyquinolin-3-yl)-1H-imidazol-2-yl)-7-(methylamino)-7-oxoheptyl)-1-methyl-1H-pyrazole-3-carboxamide]
IC50 (human HDAC1): > 5 µM | EC50 [1]: 1 to 5 µM

CNC(=O)CCCCC[C@H](NC(=O)OCc1ccccc1)c1ncc(-c2ccc3ccccc3c2)[nH]1 [Entry 72, (S)-benzyl (7-(methylamino)-1-(5-(naphthalen-2-yl)-1H-imidazol-2-yl)-7-oxo-heptyl)carbamate]
IC50 (human HDAC1): < 1 µM | EC50 [1]: 1 to 5 µM

COc1nc2ccccc2cc1-c1cnc([C@H](CCCCCC(N)=O)OC(=O)C23CCN(CC2)CC3)o1 [Entry 55]
IC50 (human HDAC1): < 1 µM | EC50 [1]: 1 to 5 µM

CNC(=O)CCCCC[C@H](NC(=O)Cn1ccnn1)c1ncc(-c2ccc3ccncc3c2)[nH]1 [Entry 58, (S)-7-(2-(1H-1,2,3-triazol-1-yl)acetamido)-7-(5-(isoquinolin-7-yl)-1H-imidazol-2-yl)-N-methylheptanamide]
IC50 (human HDAC1): 1 to 5 µM | EC50 [1]: 1 to 5 µM

CNC(=O)CCCCC[C@H](NC(=O)CC1=CSC2=NCCCN12)c1ncc(-c2ccc(-n3cccn3)cc2)[nH]1 [Entry 39, (S)-7-(5-(4-(1H-pyrazol-1-yl)phenyl)-1H-imidazol-2-yl)-7-(2-(6,7-dihydro-5H-thiazolo[3,2-a]pyrimidin-3-yl)acetamido)-N-methylheptanamide]
IC50 (human HDAC1): 1 to 5 µM | EC50 [1]: 1 to 5 µM

CNC(=O)CCCCC[C@H](NC(=O)c1cncs1)c1ncc(-c2cccc(CN)c2)[nH]1 [Entry 35, (S)-N-(1-(5-(3-(amino-methyl)phenyl)-1H-imidazol-2-yl)-7-(methylamino)-7-oxoheptyl)thiazole-5-carboxamide]
IC50 (human HDAC1): 1 to 5 µM | EC50 [1]: < 1 µM

CNC(=O)CCCCC[C@H](NC(=O)c1nnc(C)o1)c1ncc(-c2cc3ccccc3nc2OC)[nH]1 [Entry 77, (S)-N-(1-(5-(2-methoxyquinolin-3-yl)-1H-imidazol-2-yl)-7-(methylamino)-7-oxoheptyl)-5-methyl-1,3,4-oxadiazole-2-carboxamide]
IC50 (human HDAC1): 1 to 5 µM | EC50 [1]: 1 to 5 µM

CNC(=O)CCCCC[C@H](NC(=O)c1cncs1)c1ncc(-c2ccc(-c3ccn(C)n3)cc2)[nH]1 [Entry 158]
IC50 (human HDAC1): 1 to 5 µM | EC50 [1]: < 1 µM

CNC(=O)CCCCC[C@H](NC(=O)C1CCCO1)c1ncc(-c2cc3ccccc3nc2OC)[nH]1 (stereo partly drawn) [Entry 187, N-((S)-1-(5-(2-methoxyquinolin-3-yl)-1H-imidazol-2-yl)-7-(methylamino)-7-oxo-heptyl)tetra-hydrofuran-2-carboxamide]
IC50 (human HDAC1): > 5 µM | EC50 [1]: > 5 µM

CNC(=O)CCCCC[C@H](NC(=O)CN1CCC(N(C)C)C1)c1ncc(-c2cc3ccccc3nc2OC)[nH]1 (stereo partly drawn) [Entry 32, (7S)-7-(2-(3-(dimethyl-amino)pyrrolidin-1-yl)acetamido)-7-(5-(2-methoxyquinolin-3-yl)-1H-imidazol-2-yl)-N-methylheptanamide]
IC50 (human HDAC1): < 1 µM | EC50 [1]: > 5 µM

CNC(=O)CCCCC[C@H](NC(=O)c1cncs1)c1ncc(-c2ccc3ccncc3c2)[nH]1 [Entry 143, (S)-N-(1-(5-(isoquinolin-7-yl)-1H-imidazol-2-yl)-7-(methylamino)-7-oxoheptyl)thiazole-5-carboxamide]
IC50 (human HDAC1): < 1 µM | EC50 [1]: < 1 µM

CNC(=O)CCCCC[C@H](NC(=O)c1nnc(C)o1)c1ncc(-c2ccc3ccccc3c2)[nH]1 [Entry 203, (S)-5-methyl-N-(7-(methylamino)-1-(5-(naphthalen-2-yl)-1H-imidazol-2-yl)-7-oxoheptyl)-1,3,4-oxadiazole-2-carboxamide]
IC50 (human HDAC1): > 5 µM | EC50 [1]: 1 to 5 µM

CNC(=O)CCCCC[C@H](NC(=O)c1cncs1)c1ncc(-c2ccc(-c3ccccn3)cc2)[nH]1 [Entry 139, (S)-N-(7-(methylamino)-7-oxo-1-(5-(4-(pyridin-2-yl)phenyl)-1H-imidazol-2-yl)heptyl)thiazole-5-carboxamide]
IC50 (human HDAC1): 1 to 5 µM | EC50 [1]: 1 to 5 µM
